Source: US20070111981A1, “New (hetero)aryl compounds with MCH antagonistic activity and medicaments comprising these compounds” (priority 2005, published 2007)

test system: not given; assay: not given; conditions: not given

Row | SMILES | melting point
1 | CC1CCN(Cc2ccc(NCCCc3ccc(-c4ccc(Cl)cc4)cc3)cc2)CC1 [Example 1.1, [3-(4′-Chloro-biphenyl-4-yl)-propyl]-[4-(4-methyl-piperidin-1-ylmethyl)-phenyl]-amine] | 69 to 71 °C
2 | Oc1ccc(-c2ccc(CCCNc3ccc(CN4CCC(O)(C(F)(F)F)CC4)cc3)nn2)cc1 [Example 21.1] | 200 to 204 °C
3 | COc1ccc(-c2ccc(CCCNc3ccc4c(c3)CN(C)CC4)nn2)cc1 [Example 19.1, {3-[6-(4-Methoxy-phenyl)-pyridazin-3-yl]-propyl}-(2-methyl-1,2,3,4-tetrahydro-isoquinolin-7-yl)-amine] | 130 to 133 °C
4 | OC1(C(F)(F)F)CCN(Cc2ccc(NCCCc3ccc(-c4ccc(Cl)cc4)cc3)nc2)CC1 [Example 5.1] | 170 to 172 °C
5 | CN(C)Cc1ccc(NCCCc2ccc(-c3ccc(Cl)cc3)cc2)cc1 [Example 4.1, [3-(4′-Chloro-biphenyl-4-yl)-propyl]-(4-dimethylaminomethyl-phenyl)-amine] | 85 to 90 °C

biological target: T1, hMCH-1R (Homo sapiens, UniProt Q99705); assay: MCH-1 receptor binding test (125I-MCH binding to membranes of hMCH-1R transfected CHO/Galpha16 cells); conditions: displacement of 125I-MCH, hMCH-1R CHO/Galpha16 membranes
T1 construct: expressed in transfected cells
T1 sequence (Q99705 whole entry): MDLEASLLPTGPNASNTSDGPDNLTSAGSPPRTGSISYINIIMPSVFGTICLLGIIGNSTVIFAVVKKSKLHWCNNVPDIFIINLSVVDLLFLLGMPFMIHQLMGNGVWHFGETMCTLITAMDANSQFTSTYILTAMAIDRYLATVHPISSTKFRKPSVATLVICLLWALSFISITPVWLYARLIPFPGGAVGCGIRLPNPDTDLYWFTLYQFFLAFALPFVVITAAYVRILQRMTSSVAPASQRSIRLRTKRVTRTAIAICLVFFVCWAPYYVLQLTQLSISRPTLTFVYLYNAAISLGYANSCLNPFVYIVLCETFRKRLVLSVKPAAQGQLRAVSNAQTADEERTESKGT
Procedure: MCH-1 Receptor Binding Test
Method: MCH binding to hMCH-1R transfected cells
Test cell: hMCH-1R stably transfected into CHO/Galphal 6 cells
Membranes from CHO/Galphal6 cells stably transfected with human hMCH-1R are resuspended using a syringe (needle 0.6×25 mm) and diluted in test buffer (50 mM HEPES, 10 mM MgCl2, 2 mM EGTA, pH 7.00; 0.1% bovine serum albumin (protease-free), 0.021% bacitracin, 1 μg/ml aprotinin, 1 μg/ml leupeptin and 1 μM phosphoramidone) to a concentration of 5 to 15 μg/ml.
After the incubation the reaction is filtered using a cell harvester through 0.5% PEI treated fibreglass filters (GF/B, Unifilter Packard). The membrane-bound radioactivity retained on the filter is then determined after the addition of scintillator substance (Packard Microscint 20) in a measuring device (TopCount of Packard).
The non-specific binding is defined as bound radioactivity in the presence of 1 micromolar MCH during the incubation period.
The analysis of the concentration binding curve is carried out on the assumption of one receptor binding site.

Row | SMILES | IC50
6 | COc1ccc(-c2ccc(NCCCc3ccc(CN4CCC(O)CC4)cc3)nn2)cc1 [Example 9.1, 1-(4-{3-[6-(4-Methoxy-phenyl)-pyridazin-3-ylamino]-propyl}-benzyl)-piperidin-4-ol] | 174 nM
7 | CCN(CC)CCOc1ccc(OCCOc2ccc(I)cc2Cl)cc1Cl [Example 12.1, (2-{2-Chloro-4-[2-(2-chloro-4-iodo-phenoxy)-ethoxy]-phenoxy}-ethyl)-diethyl-amine] | 172 nM
8 | COc1ccc(-c2ccc(CCCNc3ccc(CN4CCC(NC(C)=O)C4)cc3)nn2)cc1 (centres unmarked) [Example 3.30, N-[1-(4-{3-[6-(4-Methoxy-phenyl)-pyridazin-3-yl]-propylamino}-benzyl)-pyrrolidin-3-yl]-acetamide] | 79 nM
